The target in the test is recombinant eIF4E (Homo sapiens (Human), UniProt P06730). The experiment in a line: Fluorescence polarization competition assay for eIF4E binding potency. An outline of the steps:
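IC50 derived from fluorescence polarization over an 8-point, 3-fold compound series after 30 min room-temperature equilibration in the dark. Mix: eIF4E 75 nM pre-bound 5 min to 20 nM EDA-m^7GDP-ATTO-550; buffer 20 mM Tris pH 7.5, 100 mM NaCl, 1 mM DTT, 0.02% Tween-20; DMSO 1%.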
(Fluorescence polarisation rises when a labelled molecule tumbles more slowly, as on binding a larger partner.)

The mark [1] stands for this setting: fluorescence polarization competition, 75 nM recombinant eIF4E, 20 nM EDA-m7GDP-ATTO-550, IC50 class, read-out: elF4E FP.
Where [2] appears, read: inhibition of eIF4E/EDA-m7GDP-ATTO-550 binding by 50%, Table 4B calculated values, read-out: IC50.
[3] abbreviates: inhibition of eIF4E/EDA-m7GDP-ATTO-550 binding, calculated IC50 values, Table 4B, read-out: IC50.

Where two headings read alike, the source gives them in different places.

recombinant eIF4E, sequence (P06730 whole entry): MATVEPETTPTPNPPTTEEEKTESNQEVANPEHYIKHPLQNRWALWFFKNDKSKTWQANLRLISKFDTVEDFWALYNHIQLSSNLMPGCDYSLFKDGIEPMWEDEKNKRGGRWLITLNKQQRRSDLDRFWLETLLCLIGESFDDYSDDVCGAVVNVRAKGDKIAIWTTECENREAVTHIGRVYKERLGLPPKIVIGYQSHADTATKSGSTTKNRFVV

On to `Cc1cc(-c2cc(Cl)ccc2OCCn2c(C)nc3cc(Cl)c(N)c(C#N)c3c2=O)c2scc(C(=O)O)c2n1` [compound 692], for which the IC50 by setting is: under setting [1], less than 50 nM; under setting [2], 5.97 nM. `CCN(c1ncc2nc(C)n(CC#Cc3ccc(Cl)cc3-c3ccnc4c(C(=O)NS(=O)(=O)c5ccccn5)csc34)c(=O)c2c1C#N)C1CCN(C2CC(F)(F)C2)CC1` [compound 1840]: the IC50 under setting [3] is 26.4 nM. For the compound `Cc1cc(-c2cc(Cl)ccc2OCCn2c(C)nc3cc4c(c(C#N)c3c2=O)CN(C)CC4)c2scc(C(=O)O)c2n1` [compound 336], the IC50 is less than 50 nM under setting [1] and 27.9 nM under setting [2]. Consider `Cc1cc(-c2cc(Cl)ccc2OCCn2c(C)nc3c(C)nc(C(F)F)c(C#N)c3c2=O)c2scc(C(=O)O)c2n1` [compound 728], for which the IC50 is, setting by setting: under setting [1], less than 50 nM; under setting [2], 31 nM. Consider `Cc1nc2cc(C(F)(F)F)cc(C#N)c2c(=O)n1CCOc1ccc(Cl)cc1-c1ccnc2c(C(=O)O)c[nH]c12` [compound 323], for which the IC50 is 50 to 1000 nM under setting [1] and 82.6 nM under setting [2]. Regarding `Cc1nc2cnc(N(C)C3CCN(CC4CC4)CC3)c(C#N)c2c(=O)n1CCOc1ccc(Cl)cc1-c1ccnc2c(C(=O)O)csc12` [compound 1370], the IC50 under setting [3] was 19.9 nM. Consider `Cc1cc(-c2cc(Cl)ccc2OCCn2c(C)nc3cc(Cl)c(CCN(C)C)c(C#N)c3c2=O)c2scc(C(=O)O)c2n1` [compound 609], for which the IC50 under setting [1] is less than 50 nM and the IC50 under setting [2] is 33.1 nM. The like results for `Cc1cc(C)nc(-c2c(C(F)(F)F)cc3nc(C)n(CCOc4ccc(Cl)cc4-c4cc(C)nc5c(C(=O)O)csc45)c(=O)c3c2C#N)c1` [compound 905] were, in that order, less than 50 nM and 9.38 nM. For `Cc1nc2cc(C#N)cc(C#N)c2c(=O)n1CC#Cc1ccc(Cl)cc1-c1ccnc2c(C(=O)O)csc12` [compound 258], in that order: less than 50 nM and 37.7 nM.

`Cc1cc(-c2cc(Cl)ccc2OCCn2c(C)nc3c(C)nc(CN(C)C)c(C#N)c3c2=O)c2scc(C(=O)O)c2n1` [compound 1621]: the IC50 under setting [3] is 72.1 nM.

`Cc1nc2cnc(/C=C/C3(N(C)C)CC3)c(C#N)c2c(=O)n1CCOc1ccc(Cl)cc1-c1ccnc2c(C(=O)O)csc12` [compound 1123]: the IC50 was less than 50 nM under setting [1] and 21.5 nM under setting [2]. The like results for `Cc1nc2cc(C(F)(F)F)cc(C#N)c2c(=O)n1CCOc1ccc(Cl)cc1-c1coc2c(C(=O)O)ccnc12` [compound 324] were, in that order, 50 to 1000 nM and 93.3 nM. As for `Cc1cc(-c2cc(Cl)ccc2OCCn2c(C)nc3cnc(N4CCCC4=O)c(C#N)c3c2=O)c2scc(C(=O)O)c2n1` [compound 977], the IC50 runs as follows: under setting [1], less than 50 nM; under setting [2], 14.4 nM. For the compound `Cc1nc2cnc(N(C)C3CCN(C4CC(F)(F)C4)CC3)c(C#N)c2c(=O)n1CC#Cc1ccc(Cl)cc1-c1ccnc2c(C(=O)NS(=O)(=O)C(C)C)csc12` [compound 1808], the IC50 under setting [3] was 5.4 nM. Regarding `Cc1cc(-c2cc(Cl)ccc2OCCn2c(C)nc3cnc(-c4cccc(Cl)c4)c(C#N)c3c2=O)c2scc(C(=O)O)c2n1` [compound 948], the IC50 is less than 50 nM under setting [1] and 18.3 nM under setting [2]. As for `Cc1cc(-c2cc(Cl)ccc2OCCn2c(C)nc3cnc(-c4ccc(F)cc4)c(C#N)c3c2=O)c2scc(C(=O)O)c2n1` [compound 943], the IC50 under setting [1] is less than 50 nM and the IC50 under setting [2] is 14.7 nM. Turning to `Cc1cc(-c2cc(Cl)ccc2OCCn2c(C)nc3cc(Cl)c(N4C[C@@H](C)N(C)[C@@H](C)C4)c(C#N)c3c2=O)c2sc(C)c(C(=O)O)c2n1` [1090a], the IC50 under setting [2] was 38.3 nM.

As for `Cc1cc(-c2cc(Cl)ccc2OCCn2c(C)nc3cc(Cl)c(N4CCN(C)CC4)c(C#N)c3c2=O)c2sc(C)c(C(=O)O)c2n1` [compound 741], the IC50 was less than 50 nM under setting [1] and 15.2 nM under setting [2]. As to `Cc1cc(-c2cc(Cl)ccc2OCCn2c(C)nc3c(C(C)C)ncc(C#N)c3c2=O)c2scc(C(=O)O)c2n1` [compound 491], the IC50 reads like this: under setting [1], less than 50 nM; under setting [2], 22.9 nM.

Source of the values: US11286268B1, “EIF4E-inhibiting compounds and methods” (EFFECTOR THERAPEUTICS, INC., priority 2019, dated 2022).
